The source of these data is ChEMBL document CHEMBL4304786, “A novel class of multitarget anti-Alzheimer benzohomoadamantane‒chlorotacrine hybrids modulating cholinesterases and glutamate NMDA receptors” (Eur J Med Chem, 2019).

The target in series [1] is Glutamate NMDA receptor; GRIN1/GRIN2B (Homo sapiens, UniProt Q05586+Q13224). Nature of the series: Inhibition of recombinant GluN1/GluN2B receptor (unknown origin) expressed in HEK293 cells by patch-clamp method. Type of series: cell-based. Background: The patch-clamp technique gives a direct electrical read-out from membranes.
The next series deals with Glutamate NMDA receptor. Nature of the series: Antagonist activity at NMDA receptor in rat CGN cells assessed as […] in intracellular calcium level incubated for 30 mins in presence of Fura-2AM followed by NMDA/glycine stimulation by fluorescence spectrometer analysis. Type of series: cell-based.
The target of series [2] is T1, Glutamate NMDA receptor (Rattus norvegicus) (UniProt P35439+Q00959+Q00960+Q00961+Q62645+Q8VHN2+Q9R1M7). Nature of the series: Potency index, ratio of memantine IC50 to compound IC50 for antagonist activity at NMDA receptor in rat CGN cells. Type of series: cell-based.
The target of series [3] is Beta-secretase 1 (Homo sapiens) (UniProt P56817). Nature of the series: Inhibition of human recombinant BACE-1 expressed in baculovirus expression system at 5 uM using panvera peptide as substrate measured after 1 hr by FRET assay relative to control.
Series [4] addresses T2, Acetylcholinesterase (Homo sapiens, UniProt P22303). Nature of the series: Inhibition of human recombinant AChE expressed in HEK293 cells using acetylthiocholine iodide as substrate preincubated for 20 mins followed by substrate addition by spectrophotometry analysis.
Series [5] concerns the target T3, Cholinesterase (Homo sapiens, UniProt P06276). Nature of the series: Inhibition of human serum BChE using butyrylthiocholine iodide as substrate preincubated for 20 mins followed by substrate addition by spectrophotometry analysis.
Series [6] concerns the target Amyloid-beta precursor protein (Homo sapiens) (UniProt P05067). Nature of the series: Inhibition of human recombinant amyloid beta (1 to 42) aggregation expressed in Escherichia coli BL21 (DE3) at 10 uM by Thioflavin S steady state fluorescence assay relative to control.
For series [7], the target named is Microtubule-associated protein tau (Homo sapiens) (UniProt P10636). Nature of the series: Inhibition of tau aggregation (unknown origin) expressed in Escherichia coli BL21 (DE3) at 10 uM by Thioflavin S steady state fluorescence assay relative to control.
Series [8] addresses T2, Acetylcholinesterase. Nature of the series: Potency index, ratio of IC50 for 6-cholorotacrine to compound IC50 for Inhibition of human recombinant AChE expressed in HEK293 cells. Type of series: cell-based.
The next series in a line: in vitro. As to conditions: PAMPA.
The target of series [9] is T3, Cholinesterase. Nature of the series: Potency index, ratio of IC50 for 6-cholorotacrine to compound IC50 for Inhibition of human serum BChE.
Series [10] has as its target T1, Glutamate NMDA receptor (Rattus norvegicus). Nature of the series: Potency index, ratio of benzoho-moadamantanamine IC50 to compound IC50 for antagonist activity at NMDA receptor in rat CGN cells. Type of series: cell-based.

T2 sequence (P22303 whole entry): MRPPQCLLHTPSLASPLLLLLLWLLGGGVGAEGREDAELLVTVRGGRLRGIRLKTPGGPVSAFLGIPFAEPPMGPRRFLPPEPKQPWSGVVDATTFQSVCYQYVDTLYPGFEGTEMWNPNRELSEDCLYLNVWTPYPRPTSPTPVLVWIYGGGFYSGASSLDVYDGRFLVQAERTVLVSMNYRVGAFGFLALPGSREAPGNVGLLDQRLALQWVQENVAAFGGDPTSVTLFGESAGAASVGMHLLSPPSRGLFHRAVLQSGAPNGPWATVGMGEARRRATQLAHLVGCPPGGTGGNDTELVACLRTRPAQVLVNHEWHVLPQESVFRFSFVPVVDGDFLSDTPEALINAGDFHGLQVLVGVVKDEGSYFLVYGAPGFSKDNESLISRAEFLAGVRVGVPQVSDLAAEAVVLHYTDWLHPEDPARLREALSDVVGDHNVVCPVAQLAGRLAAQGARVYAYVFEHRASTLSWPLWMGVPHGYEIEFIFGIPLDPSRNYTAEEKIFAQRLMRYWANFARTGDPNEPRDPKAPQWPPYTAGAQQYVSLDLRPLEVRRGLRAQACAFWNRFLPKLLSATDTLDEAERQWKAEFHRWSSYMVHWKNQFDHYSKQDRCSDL
T3 sequence (P06276 whole entry): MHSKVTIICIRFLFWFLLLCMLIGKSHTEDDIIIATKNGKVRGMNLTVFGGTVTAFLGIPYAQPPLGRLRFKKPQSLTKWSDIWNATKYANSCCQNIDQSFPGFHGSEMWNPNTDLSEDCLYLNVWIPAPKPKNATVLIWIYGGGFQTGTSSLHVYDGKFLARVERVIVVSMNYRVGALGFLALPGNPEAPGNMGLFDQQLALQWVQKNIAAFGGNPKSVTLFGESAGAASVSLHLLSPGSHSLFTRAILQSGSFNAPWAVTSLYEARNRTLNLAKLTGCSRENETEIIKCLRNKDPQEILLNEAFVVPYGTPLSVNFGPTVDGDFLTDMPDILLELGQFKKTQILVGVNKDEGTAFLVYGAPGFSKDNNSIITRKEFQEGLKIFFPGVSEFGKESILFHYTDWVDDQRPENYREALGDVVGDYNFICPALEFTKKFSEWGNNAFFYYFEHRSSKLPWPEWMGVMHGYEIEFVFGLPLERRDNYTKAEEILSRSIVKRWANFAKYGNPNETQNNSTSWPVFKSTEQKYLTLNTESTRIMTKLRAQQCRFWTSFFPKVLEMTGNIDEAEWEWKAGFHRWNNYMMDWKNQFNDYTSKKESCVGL
Microtubule-associated protein tau (Homo sapiens), sequence (P10636 whole entry): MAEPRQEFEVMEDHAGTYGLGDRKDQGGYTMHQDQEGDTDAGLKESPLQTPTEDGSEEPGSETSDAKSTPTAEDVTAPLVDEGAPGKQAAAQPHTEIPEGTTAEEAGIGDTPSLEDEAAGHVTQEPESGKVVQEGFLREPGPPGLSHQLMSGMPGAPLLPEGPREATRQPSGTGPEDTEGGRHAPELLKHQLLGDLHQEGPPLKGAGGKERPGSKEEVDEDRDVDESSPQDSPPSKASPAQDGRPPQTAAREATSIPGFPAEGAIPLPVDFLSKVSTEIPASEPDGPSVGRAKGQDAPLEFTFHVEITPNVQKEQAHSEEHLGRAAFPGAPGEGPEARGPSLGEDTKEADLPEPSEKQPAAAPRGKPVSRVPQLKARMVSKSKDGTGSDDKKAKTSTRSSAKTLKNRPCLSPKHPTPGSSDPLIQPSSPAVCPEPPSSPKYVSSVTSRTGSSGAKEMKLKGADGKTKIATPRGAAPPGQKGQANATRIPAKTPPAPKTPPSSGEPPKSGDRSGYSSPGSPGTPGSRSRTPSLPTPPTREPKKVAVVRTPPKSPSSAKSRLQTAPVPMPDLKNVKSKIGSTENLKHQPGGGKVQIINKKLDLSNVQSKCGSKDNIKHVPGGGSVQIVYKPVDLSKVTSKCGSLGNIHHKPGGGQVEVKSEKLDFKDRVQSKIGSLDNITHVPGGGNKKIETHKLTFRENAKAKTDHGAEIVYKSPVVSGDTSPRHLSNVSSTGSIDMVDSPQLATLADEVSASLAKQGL
Beta-secretase 1 (Homo sapiens), sequence (P56817 whole entry): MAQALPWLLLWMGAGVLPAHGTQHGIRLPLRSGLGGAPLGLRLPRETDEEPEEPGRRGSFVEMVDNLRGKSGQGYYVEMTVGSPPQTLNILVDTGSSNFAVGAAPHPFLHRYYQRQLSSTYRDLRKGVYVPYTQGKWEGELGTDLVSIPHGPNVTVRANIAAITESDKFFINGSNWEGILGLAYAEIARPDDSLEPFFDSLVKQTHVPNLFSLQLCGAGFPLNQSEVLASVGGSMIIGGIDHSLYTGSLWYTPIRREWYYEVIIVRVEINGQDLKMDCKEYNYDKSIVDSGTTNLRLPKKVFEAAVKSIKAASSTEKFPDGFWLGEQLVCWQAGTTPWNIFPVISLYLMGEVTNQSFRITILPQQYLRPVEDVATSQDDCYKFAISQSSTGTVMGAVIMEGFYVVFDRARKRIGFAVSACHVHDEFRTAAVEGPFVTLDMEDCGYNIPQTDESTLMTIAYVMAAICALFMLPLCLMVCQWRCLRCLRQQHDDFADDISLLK
Amyloid-beta precursor protein (Homo sapiens), sequence (P05067 whole entry): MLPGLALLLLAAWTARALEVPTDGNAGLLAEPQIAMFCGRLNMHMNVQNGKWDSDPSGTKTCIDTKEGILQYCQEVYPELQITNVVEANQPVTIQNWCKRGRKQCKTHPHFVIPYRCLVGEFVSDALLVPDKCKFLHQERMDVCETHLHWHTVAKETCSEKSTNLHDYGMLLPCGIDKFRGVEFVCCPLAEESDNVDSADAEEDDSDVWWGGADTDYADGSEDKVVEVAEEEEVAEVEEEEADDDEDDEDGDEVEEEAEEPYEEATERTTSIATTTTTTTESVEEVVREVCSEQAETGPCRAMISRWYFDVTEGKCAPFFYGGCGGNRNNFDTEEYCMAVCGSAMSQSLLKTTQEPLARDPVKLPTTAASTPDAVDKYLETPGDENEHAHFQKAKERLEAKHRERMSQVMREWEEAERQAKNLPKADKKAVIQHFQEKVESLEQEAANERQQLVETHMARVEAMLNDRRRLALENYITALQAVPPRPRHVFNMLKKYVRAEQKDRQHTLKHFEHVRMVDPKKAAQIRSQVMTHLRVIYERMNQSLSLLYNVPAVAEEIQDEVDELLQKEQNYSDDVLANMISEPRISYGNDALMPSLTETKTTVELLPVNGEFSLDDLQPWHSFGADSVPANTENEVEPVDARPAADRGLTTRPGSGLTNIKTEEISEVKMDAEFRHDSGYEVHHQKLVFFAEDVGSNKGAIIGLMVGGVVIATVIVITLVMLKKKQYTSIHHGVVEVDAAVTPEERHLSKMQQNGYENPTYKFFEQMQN
Glutamate NMDA receptor; GRIN1/GRIN2B, sequence (Q13224 whole entry, other chains not shown): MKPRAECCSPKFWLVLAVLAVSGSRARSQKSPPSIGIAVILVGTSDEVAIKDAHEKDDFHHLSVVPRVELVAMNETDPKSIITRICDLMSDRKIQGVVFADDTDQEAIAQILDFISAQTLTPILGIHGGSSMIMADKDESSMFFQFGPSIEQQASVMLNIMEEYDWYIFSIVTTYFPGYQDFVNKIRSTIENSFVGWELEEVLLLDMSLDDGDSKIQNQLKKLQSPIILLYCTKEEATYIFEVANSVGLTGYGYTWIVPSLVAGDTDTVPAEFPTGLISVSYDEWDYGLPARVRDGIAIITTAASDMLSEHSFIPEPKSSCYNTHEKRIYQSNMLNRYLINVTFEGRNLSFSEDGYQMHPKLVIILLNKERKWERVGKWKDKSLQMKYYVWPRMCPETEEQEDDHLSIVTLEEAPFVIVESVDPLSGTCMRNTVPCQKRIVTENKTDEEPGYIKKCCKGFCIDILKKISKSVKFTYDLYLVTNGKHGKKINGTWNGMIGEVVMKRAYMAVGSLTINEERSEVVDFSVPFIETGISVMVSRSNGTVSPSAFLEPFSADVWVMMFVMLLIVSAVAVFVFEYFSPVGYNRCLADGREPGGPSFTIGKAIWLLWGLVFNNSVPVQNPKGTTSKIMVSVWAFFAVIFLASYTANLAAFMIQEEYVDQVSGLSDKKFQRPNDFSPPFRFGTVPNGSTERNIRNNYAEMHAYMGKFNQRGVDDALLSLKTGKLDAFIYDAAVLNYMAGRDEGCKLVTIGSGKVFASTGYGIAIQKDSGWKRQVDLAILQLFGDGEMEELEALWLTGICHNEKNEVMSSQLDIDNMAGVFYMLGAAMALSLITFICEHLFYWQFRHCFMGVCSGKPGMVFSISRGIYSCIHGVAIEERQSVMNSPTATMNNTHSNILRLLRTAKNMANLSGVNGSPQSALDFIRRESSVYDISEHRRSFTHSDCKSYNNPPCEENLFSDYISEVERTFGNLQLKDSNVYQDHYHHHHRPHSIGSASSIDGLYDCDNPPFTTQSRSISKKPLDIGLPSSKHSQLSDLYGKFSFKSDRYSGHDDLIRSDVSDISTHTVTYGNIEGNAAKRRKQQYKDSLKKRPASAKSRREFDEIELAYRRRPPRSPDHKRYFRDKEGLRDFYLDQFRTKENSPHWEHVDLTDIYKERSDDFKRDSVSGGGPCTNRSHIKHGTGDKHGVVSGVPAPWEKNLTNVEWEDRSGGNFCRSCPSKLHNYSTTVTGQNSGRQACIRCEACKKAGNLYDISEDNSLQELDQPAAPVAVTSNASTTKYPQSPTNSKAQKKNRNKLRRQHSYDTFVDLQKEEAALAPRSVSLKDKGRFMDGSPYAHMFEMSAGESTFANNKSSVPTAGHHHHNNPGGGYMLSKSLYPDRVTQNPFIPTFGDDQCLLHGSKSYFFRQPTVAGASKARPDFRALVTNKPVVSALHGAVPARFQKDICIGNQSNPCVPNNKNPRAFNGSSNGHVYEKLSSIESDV
Description for in vitro: Permeability of the compound measured after compound dilution in PBS/EtOH buffer (70:30) by PAMPA-BBB assay

As to `COc1ccc2nc3c(c(NCCCCCNC(=S)NC45CC6CC(CC(C6)C4)C5)c2c1)CCCC3`, the Ki in series [1] was 1800 nM.
As to `NC12CC3CC(F)(CC(C1)c1ccccc13)C2`, on Glutamate NMDA receptor, the IC50 was determined as 1900 nM. The Ratio IC50 in [2] came to 1.7. The inhibition in series [3] worked out at 18%.
Regarding `O=C(CCCNc1c2c(nc3cc(Cl)ccc13)CCCC2)NC12CC3CC(F)(CC(C1)c1ccccc13)C2`, the IC50 came out at 1.4 nM at Acetylcholinesterase [4], 2300 nM on Cholinesterase [5] and 7000 nM on Glutamate NMDA receptor. Also, the figures for the inhibition in series [6], in [7] and in [3] were less than 5%, 10.2% and 18%, respectively. For the same compound, the Ratio IC50 at Acetylcholinesterase [8] lay within 6 to 44. In the series “in vitro”, the Papp was determined as 9.8 ×10⁻⁶ cm/s.
In the case of `NC12CC3CC(F)(CC(C1)c1cc(NC(=O)CCCCNc4c5c(nc6cc(Cl)ccc46)CCCC5)ccc13)C2` (configuration not stated), the half-inhibitory concentration (IC50) at Acetylcholinesterase [4] was found to be 2.5 nM; against Cholinesterase [5] it was 20 nM; at Glutamate NMDA receptor, 3400 nM. Moreover, the inhibition in series [6] is less than 5%; in series [7], 22.9%; in series [3], 18%. Moreover, the values for the Ratio IC50 on Acetylcholinesterase [8] and at Cholinesterase [9] were 44 and 24, respectively. The compound further gave a Papp in the series “in vitro” of 3.1 ×10⁻⁶ cm/s.
As to `CC12CC3CC(C)(C1)CC(N)(C3)C2`, the inhibition in series [3] stood at 18%.
With `NC12CC3CC(F)(CC(C1)c1cc(NC(=O)CCCNc4c5c(nc6cc(Cl)ccc46)CCCC5)ccc13)C2` (configuration not stated), the Ratio IC50 in series [10] was 2; in series [2], 1.7; at Acetylcholinesterase [8] it was 6 to 44. For the same compound, the IC50 on Acetylcholinesterase [4] came to 0.3 nM; against Cholinesterase [5], 500 nM; at Glutamate NMDA receptor, 1200 nM. In addition, the inhibition is less than 5% in series [6], 6.9% in series [7] and 18% in series [3]. The Papp in “in vitro” was 2.7 ×10⁻⁶ cm/s.
For the compound `Nc1c2c(nc3cc(Cl)ccc13)CCCC2`, the inhibition was less than 5% in [7] and 18% in series [3]. This compound also had a Papp in “in vitro” of 20 ×10⁻⁶ cm/s.
With `FC12CC3CC(NCCCCCNc4c5c(nc6cc(Cl)ccc46)CCCC5)(CC(C1)c1ccccc13)C2`, the Ratio IC50 in series [10] is 2; in series [2], 1.7; on Acetylcholinesterase [8], 6 to 44; at Cholinesterase [9], 2. For the same compound, the IC50 on Acetylcholinesterase [4] turned out to be 1.4 nM; on Cholinesterase [5] it was 200 nM; at Glutamate NMDA receptor it was 900 nM. For the same compound, the values for the inhibition in [6], in series [7] and in [3] were 12.3%, 20.7% and 18%, respectively. This compound also yielded a Papp in “in vitro” of 6.5 ×10⁻⁶ cm/s.
As to `O=C(CCCCNc1c2c(nc3cc(Cl)ccc13)CCCC2)NC12CC3CC(F)(CC(C1)c1ccccc13)C2`, the IC50 on Acetylcholinesterase [4] is 1.3 nM; against Cholinesterase [5] it was 2400 nM; at Glutamate NMDA receptor, 8300 nM. For the same compound, the inhibition in series [6] amounted to 9%; in series [7], 12.6%; in series [3] it was 18%. In addition, the Ratio IC50 on Acetylcholinesterase [8] was 6 to 44. This compound registered a Papp in “in vitro” of 9 ×10⁻⁶ cm/s.
For the compound `FC12CC3CC(NCCCCNc4c5c(nc6cc(Cl)ccc46)CCCC5)(CC(C1)c1ccccc13)C2`, the IC50 on Acetylcholinesterase [4] was determined as 2 nM; on Cholinesterase [5], 1100 nM; on Glutamate NMDA receptor it was 3300 nM. For the same compound, the inhibition in [6] was 8.4%; in [7], 22%; in series [3] it was 18%. Also, the Ratio IC50 on Acetylcholinesterase [8] is 6 to 44. The Papp in “in vitro” is 6.3 ×10⁻⁶ cm/s.

One may read the Ki as the dissociation constant of the complex between target and ligand, obtained from inhibition or displacement. The term IC50 denotes the point on the concentration scale where inhibition reaches its midpoint. In general, inhibition refers to how much of the control response was suppressed. The Papp is a coefficient for how fast a substance crosses the barrier. Higher therefore signals ready permeation.
